# Counter-ions that a name gives are not always drawn. Like-named read-outs stand apart in the source and are kept apart here.
# How the values were obtained:
# [1] = biological target: T1, h5-HT2C receptors (Homo sapiens, UniProt P28335); test: Functional activity, FLIPR calcium assay, CHO cells expressing h5-HT2C; format: cell-based; details: for h5-HT2C Relative Efficacy: maximum fluorescent signal relative to 10 μM 5-HT (defined as 100%)
# T1 construct: expressed in transfected cells; host or cells: CHO cells
# T1 sequence (P28335 33-458): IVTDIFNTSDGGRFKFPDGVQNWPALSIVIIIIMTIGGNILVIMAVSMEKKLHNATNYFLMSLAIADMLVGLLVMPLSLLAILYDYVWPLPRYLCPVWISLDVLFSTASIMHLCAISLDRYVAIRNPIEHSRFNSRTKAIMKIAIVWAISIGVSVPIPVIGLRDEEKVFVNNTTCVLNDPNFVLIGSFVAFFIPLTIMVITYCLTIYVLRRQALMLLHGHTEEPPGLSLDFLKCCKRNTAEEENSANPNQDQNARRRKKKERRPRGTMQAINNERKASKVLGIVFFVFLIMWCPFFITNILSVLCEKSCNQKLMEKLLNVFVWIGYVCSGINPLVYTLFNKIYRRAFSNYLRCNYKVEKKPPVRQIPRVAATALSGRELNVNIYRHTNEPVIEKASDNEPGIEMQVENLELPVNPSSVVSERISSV
# Protocol: (§1) The functional activity of compounds of formula (I) was assayed using a Fluorimetric Imaging Plate reader (FLIPR):
# (§2) CHO cells expressing either the h5-HT2C or h5-HT2A receptors were counted and plated into standard 96 well microtitre plates before the day of testing to give a confluent monolayer. The following day the cells were dye-loaded with the calcium sensitive dye Fluo 3-AM by incubation with serum free culture maintenance media containing pluronic acid and Fluo 3-AM dissolved in DMSO at 37° C. in a CO2 incubator at 95% humidity for approximately 90 minutes. Unincorporated dye was removed by washing with Hanks balanced salt solution containing 20 mM HEPES and 2.5 mM probenecid (the assay buffer) using an automated cell washer to leave a total volume of 100 μl/well.
# (§3) The drug (dissolved in 50 μL of assay buffer) was added at a rate of 70 μL/sec to each well of the FLIPR 96 well plate during fluorescence measurements. The measurements are taken at 1 sec intervals and the maximum fluorescent signal was measured (approx 10-15 secs after drug addition) and compared with the response produced by 10 μM 5-HT (defined as 100%) to which it is expressed as a percentage response (relative efficacy).Dose response curves were constructed using Graphpad Prism (Graph Software Inc.).
# [2] = biological target: T2, 5-HT2C receptor (Homo sapiens, UniProt P28335); test: Radioligand binding to 5-HT2C receptor ([3H]-5-HT, CHO cell line); details: read-out: Ki (2C)
# T2 construct: expressed in transfected cells; host or cells: CHO cell line
# T2 sequence (P28335 33-458): T1 sequence (P28335 33-458)
# Protocol: (§4) 1. Binding to Serotonin Receptors
# (§5) The binding of compounds of formula (I) to serotonin receptors was determined in vitro by standard methods. The preparations were investigated in accordance with the assays given hereinafter.
# Method (a): For the binding to the 5-HT2C receptor the 5-HT2C receptors were radiolabelled with [^3H]-5-HT. The affinity of the compounds for 5-HT2C receptors in a CHO cell line was determined according to the procedure of D. Hoyer, G. Engel and H. O. Kalkman, European J. Pharmacol., 1985, 118, 13-23.
# [3] = biological target: T3, h5-HT2A receptors (Homo sapiens, UniProt P28223); test: Functional activity, FLIPR calcium assay, CHO cells expressing h5-HT2A; format: cell-based; details: for h5-HT2A Relative Efficacy: maximum fluorescent signal relative to 10 μM 5-HT (defined as 100%)
# T3 construct: expressed in transfected cells; host or cells: CHO cells
# Protocol: as §1, §2, §3
# [4] = biological target: T4, human 5-HT2B receptors (Homo sapiens, UniProt P41595); test: Radioligand binding to 5-HT2B receptor ([3H]-5-HT, CHO cell line)
# T4 construct: expressed in transfected cells; host or cells: CHO cell line
# Protocol: as §4, §5
# Method (b): For the binding to the 5-HT2B receptor the 5-HT2B receptors were radiolabelled with [^3H]-5-HT. The affinity of the compounds for human 5-HT2B receptors in a CHO cell line was determined according to the procedure of K. Schmuck, C. Ullmer, P. Engels and H. Lubbert, FEBS Lett., 1994, 342, 85-90.
# [5] = biological target: T5, 5-HT2A receptor (Homo sapiens, UniProt P28223); test: Radioligand binding to 5-HT2A receptor ([125I]-DOI, CHO cell line); details: read-out: Ki (2A)
# T5 construct: expressed in transfected cells; host or cells: CHO cell line
# Protocol: as §4, §5
# Method (c): For the binding to the 5-HT2A receptor the 5-HT2A receptors were radiolabelled with [^125I]-DOI. The affinity of the compounds for 5-HT2A receptors in a CHO cell line was determined according to the procedure of D. J. McKenna and S. J. Peroutka, J. Neurosci., 1989, 9/10, 3482-90.
# [6] = FLIPR, Fluo 3-AM, CHO cells, read-out: h5-HT2C EC50
# [7] = [3H]-5-HT, human receptor, CHO cell line, read-out: Ki (2B)
# T5 sequence (P28223 whole entry): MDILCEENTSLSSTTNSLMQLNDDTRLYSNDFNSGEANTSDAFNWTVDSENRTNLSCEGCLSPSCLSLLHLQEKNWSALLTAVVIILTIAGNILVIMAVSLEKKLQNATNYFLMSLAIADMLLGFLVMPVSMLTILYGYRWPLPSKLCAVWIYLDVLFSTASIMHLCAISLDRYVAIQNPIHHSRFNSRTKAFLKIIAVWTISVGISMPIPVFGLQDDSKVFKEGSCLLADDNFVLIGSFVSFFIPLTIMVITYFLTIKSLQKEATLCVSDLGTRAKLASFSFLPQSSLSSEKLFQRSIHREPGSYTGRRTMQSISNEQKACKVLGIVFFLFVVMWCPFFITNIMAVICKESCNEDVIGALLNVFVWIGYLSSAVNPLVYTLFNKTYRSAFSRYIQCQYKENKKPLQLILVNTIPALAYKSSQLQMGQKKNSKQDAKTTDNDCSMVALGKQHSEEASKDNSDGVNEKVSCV
# T3 sequence (P28223 whole entry): as above
# T4 sequence (P41595 whole entry): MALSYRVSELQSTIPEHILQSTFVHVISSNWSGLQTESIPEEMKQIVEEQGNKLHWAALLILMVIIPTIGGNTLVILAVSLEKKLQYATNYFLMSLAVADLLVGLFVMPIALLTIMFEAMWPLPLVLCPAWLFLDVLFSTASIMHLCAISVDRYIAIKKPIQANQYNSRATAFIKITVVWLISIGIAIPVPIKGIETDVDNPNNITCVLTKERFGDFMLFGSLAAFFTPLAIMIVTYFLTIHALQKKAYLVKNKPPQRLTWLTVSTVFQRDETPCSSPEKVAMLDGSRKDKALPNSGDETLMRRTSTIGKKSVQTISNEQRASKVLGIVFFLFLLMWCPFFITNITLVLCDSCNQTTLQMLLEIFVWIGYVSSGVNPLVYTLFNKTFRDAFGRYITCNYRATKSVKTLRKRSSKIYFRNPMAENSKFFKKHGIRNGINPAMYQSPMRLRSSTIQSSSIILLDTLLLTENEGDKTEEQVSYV
Compound,"EC50 [1, 6] [µM]",Ki [2] [µM],h5-HT2A Relative Efficacy [3] [%],"Ki [4, 7] [µM]",Ki [5] [µM],EC50 [1] [µM],h5-HT2C Relative Efficacy [1] [%],"EC50 ([3]; FLIPR, Fluo 3-AM, CHO cells) [µM]",Ki [4] [µM],melting point
"C[C@H](N)CN1c2cc(Cl)c(F)cc2C2CCCC21 (single isomer, unassigned; isomer i) [Example 10, (2′S)-1-[4-(6-Chloro-7-fluoro-1,2,3,3a,4,8b-hexahydrocyclopent[b]indolyl)]-2-propylamine isomer I fumarate]",0.737,0.164,20,0.109,0.983,,,,,
"COc1c(F)ccc2c1C1CCCC1N2CC(C)N (mixture of isomers) [Example 20, (2′S)-[1-[4-(7-Fluoro-1,2,3,3a,4,8b-hexahydro-8-methoxycyclopent[b]indolyl)]-2-propylamine fumarate]",,0.318,17,,0.481,0.464,62,5.49,0.367,
"COc1cc2c(cc1F)C1CCCC1N2C[C@H](C)N (single isomer, unassigned; isomer i) [Example 19, (2′S)-1-[4-(7-Fluoro-1,2,3,3a,4,8b-hexahydro-6-methoxycyclopent[b]indolyl)]-2-propylamine isomer I 0.7 fumarate]",,0.088,0,,1.16,0.391,84,,0.513,
"C[C@H](N)CN1c2cc(Cl)ccc2[C@@H]2CCC[C@@H]21 [Example 2, (2′S, 3aS, 8b5)-[1-[4-(6-Chloro-1,2,3,3a,4,8b-hexahydrocyclopent[b]indolyl)]-2-propylamine hydrochloride]",0.585,0.133,7,0.302,0.726,,,,,
NCCN1c2ccccc2[C@H]2CCC[C@H]21.O=C(O)/C=C/C(=O)O (racemic),,,,,,,,,,172 °C (dec.)

# — US6479534B1, “Indoline derivatives and method of treating obesity” (priority 2000, dated 2002)
